Columns and labels:
C57BL/6 mice [1] = assay: Acute food intake in overnight fasted mice; assay type: in vivo; conditions: n = 6
Description: (§1) Acute in vivo studies were conducted in groups (n = 6) of 4‐month‐old male C57BL/6 mice (Envigo, Huntington, UK). All mice were maintained on standard rodent chow (10% fat, 30% protein, and 60% carbohydrate; Trouw Nutrition, Northwich, UK), and drinking water provided ad libitum. Mice were housed individually and kept in a temperature‐controlled environment (22 ± 2°C), with a 12‐h light/dark cycle. Experiments were carried out in accordance with the UK Animal Scientific Procedures Act 1986 as well as being approved by Ulster University Animal Ethics Review Committee (AWERB) committee and protected by the UK Home Office Animal project license number PPL2902, approved on April 26, 2021. Acute effects of test peptides on food intake were tested in overnight (16 h) fasted mice. Briefly, fasted mice were administered an intraperitoneal (i.p.) injection of saline vehicle (0.9% (w/v) NaCl) alone or in combination with test peptides (each at 25, 75, or 200 nmol/kg bw) and cumulative food intake measured at regular intervals, to assess the pharmacodynamic profile of the test peptides. For food intake studies, mice were provided with preweighed rodent maintenance diet in their food hopper at t = 0 min, which was then re‐weighed at each timepoint with all due care taken to account for any wastage or crumbling of the food pellets. In this regard, the investigator was present at all times during the 180‐min test period to ensure accuracy and consistency in all measurements. Furthermore, effects of PP or related peptides (25 nmol/kg bw) on glucose homeostasis and insulin secretion were evaluated in overnight fasted mice following i.p. injection of glucose alone (18 mmol/kg bw) or in combination with PP peptides (each at 25 nmol/kg bw).

[2] = in vivo; cited from earlier work
Description: Despite these prominent therapeutically exploitable advantages, clinical utilization of native PP as a positive NPY4R modulator is limited by a short circulatory half‐life of less than 7 min.[17] This appears to be due to rapid cleavage of the N‐terminal dipeptide, Ala^1‐Pro^2, from PP by the ubiquitous enzyme dipeptidyl peptidase‐4 (DPP‐4).[18] […] As such, DPP‐4 resistant PP mole ...

C57BL/6 mice [3] = assay: Glucose‐stimulated plasma insulin in mice; assay type: in vivo; conditions: peptide 25 nmol/kg with glucose 18 mmol/kg i.p., versus glucose control; n = 6
Description: as §1, with “bw). […] Blood glucose was measured immediately using a hand‐held Ascencia Contour blood glucose meter (Bayer Healthcare, Newbury, Berkshire, UK). For plasma insulin, blood was collected in chilled fluoride/heparin‐coated microcentrifuge tubes (Sarstedt, Numbrecht, Germany) and centrifuged using a Beckman microcentrifuge (Beckman Instruments, Galway, Ireland) for 10 min at 12,000 rpm. Plasma was separated and stored at −20°C, until determination of plasma insulin by radioimmunoassay.[23]” for “bw).”

BRIN‐BD11 beta‐cells = assay: In vitro insulin secretion from BRIN‐BD11 beta‐cells; assay type: cell-based; conditions: 20 min, insulin radioimmunoassay, n = 8
Description: Effects of the PP and related peptides on insulin secretion were examined in pancreatic BRIN‐BD11 beta‐cells. The secretory characteristics of this cell line have been described in detail previously.[22] Cells were cultured in RPMI 1640 media (Gibco Life Technologies Ltd), with a glucose concentration of 11.1 mM and supplemented with 10% v/v fetal bovine serum (Gibco), 1% v/v antibiotics (0.1 mg/mL streptomycin and 100 U/mL penicillin) at 37°C in 5% atmospheric CO2. For experimentation, cells were seeded into 24‐well plates (Falcon Ltd) at a density of 150,000 cells per well. Following overnight attachment, media was aspirated, and cells were preincubated in 1.1 mM glucose KRB buffer for 40 min. Following preincubation, the 1.1 mM glucose solution was removed and 1 mL of KRB test solution, containing 16.7 mM glucose with PP peptides (10^−12 to 10^−6 M) was added for 20 min. In a separate series, PP peptides were also incubated in the presence of alanine (10 mM) at 16.7 mM glucose to further investigate the effects on insulin secretion. For all experiments, following a 20 min incubation period, the supernatant was collected and stored at −20°C until insulin concentration determination using a dextran‐coated charcoal insulin radioimmunoassay.[23]

With `CC[C@H](C)[C@H](NC(=O)[C@H](Cc1ccc(O)cc1)NC(=O)[C@H](CCCNC(=N)N)NC(=O)[C@H](CCCNC(=N)N)NC(=O)[C@H](CC(C)C)NC(=O)[C@H](CC(=O)O)NC(=O)[C@H](C)NC(=O)[C@H](C)NC(=O)[C@H](Cc1ccc(O)cc1)NC(=O)[C@H](CCC(N)=O)NC(=O)[C@H](C)NC(=O)[C@H](CCSC)NC(=O)[C@H](CCC(N)=O)NC(=O)[C@H](CCC(=O)O)NC(=O)[C@@H]1CCCN1C(=O)[C@@H](NC(=O)[C@H](C)NC(=O)[C@H](CC(N)=O)NC(=O)[C@H](CC(=O)O)NC(=O)CNC(=O)[C@@H]1CCCN1C(=O)[C@H](Cc1ccc(O)cc1)NC(=O)[C@@H](NC(=O)[C@@H]1CCCN1C(=O)[C@H](CCC(=O)O)NC(=O)[C@H](CC(C)C)NC(=O)[C@@H]1CCCN1C(=O)[C@H](C)N)C(C)C)[C@@H](C)O)C(=O)N[C@@H](CC(N)=O)C(=O)N[C@@H](CCSC)C(=O)N[C@@H](CC(C)C)C(=O)N[C@H](C(=O)N[C@@H](CCCNC(=N)N)C(=O)N1CCC[C@H]1C(=O)N[C@@H](CCCNC(=N)N)C(=O)N[C@@H](Cc1ccc(O)cc1)C(N)=O)[C@@H](C)O` [PP, Pancreatic polypeptide] the “cumulative food intake (appetite suppression)” value (C57BL/6 mice [1]; 25 nmol/kg i.p., overnight (16 h) fasted mice, up to 180 min, versus saline) was “particularly effective”, the “food intake in combination with CCK‐8” value (C57BL/6 mice [1]; PP peptide 25 nmol/kg with CCK‐8 25 nmol/kg i.p., fasted mice, compared with CCK‐8) was “significantly (p = <0.05 to 0.01) augment this effect from 90 min onwards” and the “food intake in combination with exendin‐4” value (C57BL/6 mice [1]; PP peptide 25 nmol/kg with exendin‐4 0.25 nmol/kg i.p., fasted mice) was “additive appetite suppressive actions”. The “circulatory half‐life” value [2] was “less than 7 min”, the “glucose‐induced insulin secretion (plasma insulin)” value (C57BL/6 mice [3]) was “slightly decreasing (p = <0.05 to 0.01)” and the “insulin secretion at 16.7 mM glucose” value (BRIN‐BD11 beta‐cells; peptide 10^−6 M) was “slight inhibitory effect”. The “insulin secretion at 16.7 mM glucose” value (BRIN‐BD11 beta‐cells; peptides 10^−12 to 10^−7 M) was “no discernible impact”.

— publication PMC11627468, “Novel enzyme‐resistant pancreatic polypeptide analogs evoke pancreatic beta‐cell rest, enhance islet cell turnover, and inhibit food intake in mice” (Biofactors (Oxford, England), 2024)
